Positions of bridges follow the written chain, without caps; N, C: chain ends. Non-standard residues stand in square brackets, D forms with d. Residues, ends and D or L forms follow the SMILES beside them. Dap = NC[C@H](N)C(=O)O
Molecular target: T1, neurokinin A receptor (receptor NK-2) (Oryctolagus cuniculus, UniProt P79218)
T1 construct: The said preparation consisted of isolated rabbit pulmonary artery; from tissue; host or cells: isolated rabbit pulmonary artery
T1 sequence (P79218 1-384): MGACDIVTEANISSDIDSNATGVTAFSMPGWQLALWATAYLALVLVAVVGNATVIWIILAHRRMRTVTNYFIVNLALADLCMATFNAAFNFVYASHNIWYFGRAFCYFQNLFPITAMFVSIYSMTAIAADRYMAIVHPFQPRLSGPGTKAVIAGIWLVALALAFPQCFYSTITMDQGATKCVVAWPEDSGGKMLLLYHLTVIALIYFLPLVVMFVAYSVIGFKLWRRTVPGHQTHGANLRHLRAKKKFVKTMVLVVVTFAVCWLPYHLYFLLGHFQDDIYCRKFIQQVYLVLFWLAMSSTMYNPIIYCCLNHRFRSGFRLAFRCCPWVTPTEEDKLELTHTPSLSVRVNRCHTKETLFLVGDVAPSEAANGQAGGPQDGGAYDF
Assay: inhibition of NKA-induced contraction in isolated rabbit pulmonary artery
Type: cell-based
Conditions: compound, NKA 3 nM
Experimental: The capacity of the products described in the present invention to interact with the neurokinin A receptor as agonists or antagonists was assessed using a preparation characterized by the fact that the biological response produced by tachykinins and correlated peptides was exclusively determined by the neurokinin A receptor (receptor NK-2). The said preparation consisted of isolated rabbit pulmonary artery affected by a dose-dependentcontraction brought about by tachykinins (Rovero et al., Neuropeptides, 13, 263-270, 1989). The determination of the peptide activity in the test preparation was based on the use of an NKA concentration (3 nM) causing a response equal to 45% of max. response. The peptides considered herein were added to the preparation in growing concentrations. Their activity was assessed as inhibition of response to NKA.

CSCC[C@@H]1NC(=O)[C@H](CC(C)C)NC(=O)[C@@H]2CNC(=O)C[C@H](NC1=O)C(=O)N[C@@H](Cc1c[nH]c3ccccc13)C(=O)N[C@@H](Cc1ccccc1)C(=O)N2 [Compound 1] (cyclo(DWF[Dap]LM); lactam 1-4)
inhibition of response to neurokinins A: 100%
